Reference: article PMC5845537 (Frontiers in Pharmacology, 2018)
Like-named read-outs stand apart in the source and are kept apart here.

Assays:
5-HT3 receptor = 5-HT3 receptor occupancy (literature); assay type: in vivo, rat; details: 0.22 g/kg subchronic dose; estimated based on known SERT:5-HT3 receptor occupancy relationships; ref Leiser et al., 2014
5-HT7 receptors = details: 2014, cited from earlier work
GABAA receptor = experiment: Ex vivo autoradiography, GABAA receptor saturation binding ([3H]muscimol), medial prefrontal cortex; design: species or system rat; details: PCP/vortioxetine group vs all other treatment groups
Text: Rats used in ex vivo autoradiography (EVA) experiments were randomly assigned to one of four experimental groups characterized by either subchronic saline or PCP (as described above) along with either vehicle or vortioxetine-infused food (1.8 g vortioxetine/kg food weight, as described in the attentional set shifting task). On day 8 of PCP withdrawal, rats were anesthetized using CO2 and killed by decapitation. Brains were quickly and gently removed from the skull, flash frozen on powdered dry ice, and stored at -20°C until sectioning. Later, 12 μm coronal sections were collected from an area ranging from approximately +4.2 mm to +2.3 mm anterior to Bregma ([Paxinos and Watson, 1998]) using a cryostat (MicroM, Germany) and were thaw-mounted on glass microscope slides. This range of coronal slices was chosen in order to study the prelimbic and infralimbic subregions of the medial prefrontal cortex, given the importance of these regions in tests of executive function such as the attentional set shifting task ([Ng et al., 2007]). After the tissue mounted on the microscope slides had dried thoroughly (in order to reduce damage from freezing), slides were packed into slide boxes with desiccator pellets, and stored at -20°C for use in EVA saturation binding and competition experiments.
Each of the EVA procedures used in this study are variations on a similar theme. On the day of an experiment, slide-boxes were defrosted under a constant stream of air at room temperature until the boxes were dry and equilibrated with the environment in terms of temperature. This step was undertaken in order to ensure brain tissue was not damaged by frosting due to a sudden change in humidity. Prior to any binding experiments, slides were preincubated in the appropriate preincubation buffer and dried at room temperature. Subsequently, tissue was incubated in an assay buffer containing a radioligand appropriate for the receptor of interest, then rinsed in assay buffer, and dried overnight in a vacuum desiccator. Specific information on the contents of the preincubation buffers, assay buffers and other assay conditions are listed in Table 2. Finally, slides were opposed to a tritium-sensitive phosphor screen (Fuji imaging plate, GE Healthcare, Pittsburgh, PA, United States) for 5 days before being read in a phosphorimager (Typhoon FLA7000, GE Healthcare). Analysis methods are listed below under statistical analyses.
In saturation binding experiments, the concentration of the relevant radioligand in the assay buffer was systematically varied in order to determine the KD and Bmax of the receptor in question. At each radioligand concentration, the non-specific binding was determined on a separate slide by including a high concentration of a non-radioactive competitor ligand in the assay buffer along with the radioligand. For GABAA receptor saturation binding experiments, [^3H]muscimol was examined in quarter log steps ranging from 0.56 to 300 nM. For GABAB receptor saturation binding experiments, [^3H]CGP54626 was examined in quarter log steps ranging from 0.17 to 100 nM.
For saturation binding studies, the primary dependent measures were pKD and Bmax. […] A linear regression was performed to determine the relationship between intensity and bound radioactivity (measured on the standards in units of μCi/g). […] These optical intensity values were transformed into bound radioactivity (expressed as nCi/mg) measurements by interpolation from the standard curve noted above. […]

occupancy at 5-HT3 receptors (5-HT3 receptor): full occupancy | effect of treatment on [3H]muscimol affinity for the GABAA receptor (GABAA receptor): small but significant reduction
SMILES: Cc1ccc(Sc2ccccc2N2CCNCC2)c(C)c1 [vortioxetine]
occupancy at 5-HT7 receptors (5-HT7 receptors; 10 mg/kg 1 h s.c., ref Leiser et al.): ≈ 40% | occupancy at 5-HT7 receptors (5-HT7 receptors; subchronic dose used in the mouse OR and object placement tasks, expected, ref Wallace et al., Waller et al., 2017): negligible
